Assay results reported in US10246417B2, “Picolinamides as fungicides” (Dow AgroSciences LLC, priority 2017, dated 2019).

Tested on: Phakopsora pachyrhizi
Experiment: Fungicidal activity: Asian soybean rust (PHAKPA), soybean seedlings
Assay type: in vivo
Details: High volume, 25 ppm, 3 Day Curative
Description: Example C: Evaluation of Fungicidal Activity: Asian Soybean Rust (Phakopsora pachyrhizi; Bayer Code […]) Technical grades of materials were dissolved in acetone, which were then mixed with nine volumes of water containing 0.011% Tween 20. The fungicide solutions were applied onto soybean seedlings using an automated booth sprayer to run-off. All sprayed plants were allowed to air dry prior to further handling. Soybean plants (variety Williams 82) were grown in soil-less Metro mix, with one plant per pot. Two week old seedlings were used for testing. Plants were inoculated either 3 days prior to or 1 day after fungicide treatments. Plants were incubated for 24 h in a dark dew room at 22° C. and 100% relative humidity then transferred to a growth room at 23° C. for disease to develop. Disease severity was assessed on the sprayed leaves.

Row | Structure (SMILES) | PHAKPA disease control, 3DC
1 | COc1ccnc(C(=O)N[C@@H](C)C(=O)O[C@@H](C)[C@@H](c2ccc(F)cc2C)C(C)C)c1OC(C)=O [compound 178] | B (≤80)
2 | COc1ccnc(C(=O)N[C@@H](C)C(=O)O[C@H](C)[C@H](c2ccc(F)cc2C)C(C)C)c1OC(C)=O [compound 192] | B (≤80)
3 | COc1ccnc(C(=O)N[C@@H](C)C(=O)O[C@@H](C)[C@H](c2ccc(C)cc2F)C(C)C)c1OC(C)=O [compound 366] | B (≤80)
4 | COc1ccnc(C(=O)N[C@@H](C)C(=O)O[C@@H](C)[C@@H](c2ccc(C)cc2F)C(C)C)c1OC(C)=O [compound 369] | B (≤80)
